Legend:
[1] = biological target: T1, DGKα (hDGKalpha(1-735)-N-His) (Homo sapiens, UniProt P23743); experiment: In vitro DGK inhibition assay, DGKalpha ADP Glo (in house); assay type: biochemical; conditions: 4 nM DGKα, 25 μM ATP, 125 uM DLG in liposomes, 1 hour reaction
T1 construct: hDGKalpha(1-735)-N-His; His (N); made in house; host or cells: Sf21 insect cells (baculovirus)
Method in brief: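 ADP-Glo luminescence measured ADP formed over 1 h by Sf21-expressed full-length human enzymes: DGKα at 4 nM with 25 µM ATP, DGKζ at 2 nM with 50 µM ATP, both on 125 µM DLG in PS/PC liposomes. Dose–response used 11 threefold dilutions at 2% final DMSO.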

[2] = system: primary human T-cells; experiment: Proliferation assay (5 days, CellTiter-Glo, CD3-stimulated T-cells); assay type: cell-based; conditions: for Emax proliferation (% activation): CD3 condition, normalised to DMSO (neutral) and 20 μM reference compound A1 = 100%; for EC50: Homo sapiens, T-cell, 120 h, CD3-stimulated primary human T-cells, 5 days, CellTiter-Glo, fitted sigmoidal curve, read-out: Tcell Proliferation CD3 EC50
Method in brief: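 Proliferation read-out: ATP luminescence (CellTiter-Glo 2.0) at day 5 in expanded primary human T-cells on CD3 antibody-coated plates, with PBS-only plates as a counter screen. Compounds in 5–6 pt series (factor 3.333, top 20 or 10 μM final). Values are normalized to DMSO (neutral) and 20 μM reference A1 (100%), from sigmoidal fits.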

T1 sequence (P23743 whole entry): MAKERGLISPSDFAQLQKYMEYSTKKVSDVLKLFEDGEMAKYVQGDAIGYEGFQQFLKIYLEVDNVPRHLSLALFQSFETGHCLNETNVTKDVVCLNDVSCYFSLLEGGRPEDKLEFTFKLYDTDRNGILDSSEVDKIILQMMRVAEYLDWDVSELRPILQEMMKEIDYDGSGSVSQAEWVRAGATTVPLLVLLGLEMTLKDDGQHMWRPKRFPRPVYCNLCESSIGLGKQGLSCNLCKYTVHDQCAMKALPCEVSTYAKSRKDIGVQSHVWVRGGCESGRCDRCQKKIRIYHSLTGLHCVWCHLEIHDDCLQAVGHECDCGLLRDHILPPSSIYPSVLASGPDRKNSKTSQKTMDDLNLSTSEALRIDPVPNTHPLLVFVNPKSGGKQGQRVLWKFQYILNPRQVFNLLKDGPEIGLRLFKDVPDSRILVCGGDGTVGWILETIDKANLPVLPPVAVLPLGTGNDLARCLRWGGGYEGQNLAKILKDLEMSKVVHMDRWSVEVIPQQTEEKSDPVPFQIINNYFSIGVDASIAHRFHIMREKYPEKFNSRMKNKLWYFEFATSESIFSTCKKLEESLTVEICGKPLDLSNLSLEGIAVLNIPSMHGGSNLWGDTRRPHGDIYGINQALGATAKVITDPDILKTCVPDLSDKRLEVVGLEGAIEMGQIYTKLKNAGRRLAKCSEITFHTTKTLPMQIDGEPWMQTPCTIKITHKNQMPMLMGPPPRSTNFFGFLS

| SMILES | IC50 [1] | Emax proliferation (% activation) [2] | EC50 [2] |
| --- | --- | --- | --- |
| CC(C)(C)c1nc(-c2cc3c(cc2F)S(=O)(=O)C[C@H](N)C(=O)N3Cc2ccc(-c3ccc(CO)cc3)nc2)no1 [Example 7, (3R)-3-amino-7-(5-tert-butyl-1,2,4-oxadiazol-3-yl)-8-fluoro-5-[[6-[4-(hydroxymethyl)phenyl]-3-pyridyl]methyl]-1,1-dioxo-2,3-dihydro-1λ^6,5-benzothiazepin-4-one] | > 62500 nM | 97 % activation | 3520 nM |
| N[C@H]1CS(=O)(=O)c2cc(F)c(-c3noc(N4CCCC4)n3)cc2N(Cc2ccc(-c3noc(C(F)(F)F)n3)nc2)C1=O [Example 15, (3R)-3-amino-8-fluoro-1,1-dioxo-7-(5-pyrrolidin-1-yl-1,2,4-oxadiazol-3-yl)-5-[[6-[5-(trifluoromethyl)-1,2,4-oxadiazol-3-yl]-3-pyridyl]methyl]-2,3-dihydro-1λ^6,5-benzothiazepin-4-one] | 40300 nM | 64 % activation | 3200 nM |
| Cn1ccc(-c2ccc(CN3C(=O)[C@@H](N)CS(=O)(=O)c4ccc(-c5nnc(C(C)(C)C)o5)cc43)cc2)n1 [Example 21] | 16800 nM | 63 % activation | 7060 nM |
| CC(C)(C)c1nnc(-c2ccc3c(c2)N(Cc2ccc(-n4cnc(C(F)(F)F)c4)cc2)C(=O)[C@@H](N)CS3(=O)=O)o1 [Example 28, (3R)-3-amino-7-(5-tert-butyl-1,3,4-oxadiazol-2-yl)-1,1-dioxo-5-[[4-[4-(trifluoromethyl)imidazol-1-yl]phenyl]methyl]-2,3-dihydro-1λ^6,5-benzothiazepin-4-one] | 37300 nM | 108 % activation | 3510 nM |
| CC(N)(c1nnc(-c2ccc3c(c2)N(Cc2ccc(-c4noc(CC(F)(F)F)n4)cc2)C(=O)[C@@H](N)CS3(=O)=O)o1)C(F)(F)F (stereo partly drawn) [Example 33, (3R)-3-amino-7-[5-(1-amino-2,2,2-trifluoro-1-methyl-ethyl)-1,3,4-oxadiazol-2-yl]-1,1-dioxo-5-[[4-[5-(2,2,2-trifluoroethyl)-1,2,4-oxadiazol-3-yl]phenyl]methyl]-2,3-dihydro-1λ^6,5-benzothiazepin-4-one] | 23800 nM | 105 % activation | 3190 nM |
| CC(C)(C#N)c1nnc(-c2ccc3c(c2)N(Cc2ccc(-c4ccc(C(F)(F)F)cc4)cc2)C(=O)[C@@H](N)CS3(=O)=O)o1 [Example 46] | 16200 nM | 94 % activation | 116 nM |
| CC1(c2nnc(-c3ccc4c(c3)N(Cc3ccc(-c5ccc(C(F)(F)F)cc5)cc3)C(=O)[C@@H](N)CS4(=O)=O)o2)CCO1 (stereo partly drawn) [Example 48, (3R)-3-amino-7-[5-(2-methyloxetan-2-yl)-1,3,4-oxadiazol-2-yl]-1,1-dioxo-5-[[4-[4-(trifluoromethyl)phenyl]phenyl]methyl]-2,3-dihydro-1lambda6,5-benzothiazepin-4-one] | > 62500 nM | 139 % activation | 321 nM |
| C[C@@](N)(c1nnc(-c2ccc3c(c2)N(Cc2ccc(-c4noc(C(F)(F)F)n4)cc2)C(=O)[C@@H](N)CS3(=O)=O)o1)C(F)(F)F [Example 52, (3R)-3-amino-7-[5-[(1R)-1-amino-2,2,2-trifluoro-1-methyl-ethyl]-1,3,4-oxadiazol-2-yl]-1,1-dioxo-5-[[4-[5-(trifluoromethyl)-1,2,4-oxadiazol-3-yl]phenyl]methyl]-2,3-dihydro-1λ^6,5-benzothiazepin-4-one] | 25200 nM | 126 % activation | 196 nM |
| C[C@](N)(c1nnc(-c2ccc3c(c2)N(Cc2ccc(-c4noc(C(F)(F)F)n4)cc2)C(=O)[C@@H](N)CS3(=O)=O)o1)C(F)(F)F [Example 53, (3R)-3-amino-7-[5-[(1S)-1-amino-2,2,2-trifluoro-1-methyl-ethyl]-1,3,4-oxadiazol-2-yl]-1,1-dioxo-5-[[4-[5-(trifluoromethyl)-1,2,4-oxadiazol-3-yl]phenyl]methyl]-2,3-dihydro-1λ^6,5-benzothiazepin-4-one] | 43400 nM | 120 % activation | 2220 nM |
| N[C@H]1CS(=O)(=O)c2ccc(-c3nnc(C4(CO)CCCO4)o3)cc2N(Cc2ccc(-c3ccc(C(F)(F)F)cc3)cc2)C1=O (stereo partly drawn) [Example 55] | > 62500 nM | 59 % activation | 1090 nM |
| COC(=O)N1CC2CC(c3nnc(-c4ccc5c(c4)N(Cc4ccc(-c6ccc(OC)cc6)cc4)C(=O)[C@@H](N)CS5(=O)=O)o3)(C2)C1 [Example 59, methyl 1-[5-[(3R)-3-amino-5-[[4-(4-methoxyphenyl)phenyl]methyl]-1,1,4-trioxo-2,3-dihydro-1λ^6,5-benzothiazepin-7-yl]-1,3,4-oxadiazol-2-yl]-3-azabicyclo[3.1.1]heptane-3-carboxylate] | 3040 nM | 103 % activation | 29 nM |
| COC(=O)N1CC2CC(c3nnc(-c4ccc5c(c4)N(Cc4ccc(-c6ccc(C(F)(F)F)cc6)cc4)C(=O)[C@@H](N)CS5(=O)=O)o3)(C2)C1 [Example 60, methyl 1-[5-[(3R)-3-amino-1,1,4-trioxo-5-[[4-[4-(trifluoromethyl)phenyl]phenyl]methyl]-2,3-dihydro-1λ^6,5-benzothiazepin-7-yl]-1,3,4-oxadiazol-2-yl]-3-azabicyclo[3.1.1]heptane-3-carboxylate] | 3630 nM | 110 % activation | 41.7 nM |
| COc1ccc(-c2ccc(CN3C(=O)[C@@H](N)CS(=O)(=O)c4ccc(-c5nnc(C6(CO)CCCO6)o5)cc43)cc2)cc1 (stereo partly drawn) [Example 63, (3R)-3-amino-7-[5-[2-(hydroxymethyl)tetrahydrofuran-2-yl]-1,3,4-oxadiazol-2-yl]-5-[[4-(4-methoxyphenyl)phenyl]methyl]-1,1-dioxo-2,3-dihydro-1λ^6,5-benzothiazepin-4-one] | 33700 nM | 103 % activation | 1060 nM |

The remaining molecules from weak to strong by IC50 [1], led by results:

| IC50 [1] | SMILES | Emax proliferation (% activation) [2] | EC50 [2] |
| --- | --- | --- | --- |
| 7280 nM | CC(C)(C#N)c1nnc(-c2ccc3c(c2)N(Cc2ccc(-c4ccc(C(F)(F)F)cn4)cc2)C(=O)[C@@H](N)CS3(=O)=O)o1 [Example 47] | 159 % activation | 459 nM |
| 4960 nM | Cc1noc(-c2ccc(CN3C(=O)[C@@H](N)CS(=O)(=O)c4ccc(-c5nnc(C(C)(C)C)o5)cc43)cc2)n1 [Example 20, (3R)-3-amino-7-(5-tert-butyl-1,3,4-oxadiazol-2-yl)-5-[[4-(3-methyl-1,2,4-oxadiazol-5-yl)phenyl]methyl]-1,1-dioxo-2,3-dihydro-1λ^6,5-benzothiazepin-4-one] | 82 % activation | 2380 nM |
| 3540 nM | CC(C)(C)c1nnc(-c2ccc3c(c2)N(Cc2ccc(-n4cc(C(F)(F)F)cn4)cc2)C(=O)[C@@H](N)CS3(=O)=O)o1 [Example 25, (3R)-3-amino-7-(5-tert-butyl-1,3,4-oxadiazol-2-yl)-1,1-dioxo-5-[[4-[4-(trifluoromethyl)pyrazol-1-yl]phenyl]methyl]-2,3-dihydro-1λ^6,5-benzothiazepin-4-one] | 131 % activation | 2930 nM |
| 2950 nM | CC(C)(C)c1nnc(-c2ccc3c(c2)N(Cc2ccc(-n4ccc(C(F)(F)F)n4)cc2)C(=O)[C@@H](N)CS3(=O)=O)o1 [Example 27] | 212 % activation | 252 nM |
| 2490 nM | COC(F)(c1nnc(-c2ccc3c(c2)N(Cc2ccc(-c4nnc(C5CC5)o4)cc2)C(=O)[C@@H](N)CS3(=O)=O)o1)C(F)(F)F (stereo partly drawn) [Example 65] | 102 % activation | 681 nM |
| 2360 nM | Cn1ccc(-c2ccc(CN3C(=O)[C@@H](N)CS(=O)(=O)c4cc(F)c(-c5nnc(C(C)(C)C)o5)cc43)cc2)n1 [Example 1, (3R)-3-amino-7-(5-tert-butyl-1,3,4-oxadiazol-2-yl)-8-fluoro-5-[[4-(1-methylpyrazol-3-yl)phenyl]methyl]-1,1-dioxo-2,3-dihydro-1λ^6,5-benzothiazepin-4-one] | 73 % activation | 843 nM |
| 1870 nM | CC(C)Nc1nnc(-c2cc3c(cc2F)S(=O)(=O)C[C@H](N)C(=O)N3Cc2ccc(-c3noc(C(F)(F)F)n3)cc2)o1 [Example 6, (3R)-3-amino-8-fluoro-7-[5-(isopropylamino)-1,3,4-oxadiazol-2-yl]-1,1-dioxo-5-[[4-[5-(trifluoromethyl)-1,2,4-oxadiazol-3-yl]phenyl]methyl]-2,3-dihydro-1λ^6,5-benzothiazepin-4-one] | 109 % activation | 765 nM |
| 1530 nM | CC(C)(C)c1nnc(-c2ccc3c(c2)N(Cc2ccc(-c4noc(C(F)(F)F)n4)cc2)C(=O)[C@@H](N)CS3(=O)=O)o1 [Example 23, (3R)-3-amino-7-(5-tert-butyl-1,3,4-oxadiazol-2-yl)-1,1-dioxo-5-[[4-[5-(trifluoromethyl)-1,2,4-oxadiazol-3-yl]phenyl]methyl]-2,3-dihydro-1λ^6,5-benzothiazepin-4-one] | 136 % activation | 316 nM |
| 613 nM | Cc1noc(-c2ccc(CN3C(=O)[C@@H](N)CS(=O)(=O)c4cc(F)c(-c5nnc(C(C)(C)C)o5)cc43)cc2)n1 [Example 2] | 143 % activation | 296 nM |
